Measured values as given in patent publication US7884105B2, “Squaric acid derivatives as inhibitors of histone deacetylase” (Janssen Pharmaceutica, N.V., priority 2005, dated 2011).

target: histone deacetylase (HeLa nuclear extracts); experiment: In vitro assay for inhibition of histone deacetylase (HDAC Fluorescent Activity Assay, Fluor de Lys); assay type: biochemical; design: key: pIC50 = negative log of IC50; conditions: HeLa nuclear extracts 60 μg/ml, 75 μM Fluor de Lys substrate, pH 7.4, 30 min
Excerpt: The in vitro assay for inhibition of histone deacetylase (see example C.1) measures the inhibition of HDAC enzymatic activity obtained with the compounds of formula (I).
The HDAC Fluorescent Activity Assay/Drug Discovery Kit of Biomol (cat. No: AK-500-0001) was used. The HDAC Fluorescent Activity Assay is based on the Fluor de Lys (Fluorogenic Histone deAcetylase Lysyl) substrate and developer combination. The Fluor de Lys substrate, comprises an acetylated lysine side chain. Deacetylation of the substrate sensitizes the substrate so that, in the second step, treatment with the Fluor de Lys developer produces a fluorophore.
HeLa nuclear extracts (supplier: Biomol) were incubated at 60 μg/ml with 75 μM of substrate. The Fluor de Lys substrate was added in a buffer containing 25 mM Tris, 137 mM NaCl, 2.7 mM KCl and 1 mM MgCl2.6H2O at pH 7.4. After 30 min, 1 volume of the developer was added. The fluorophore was excited with 355 nm light and the emitted light (450 nm) was be detected on a fluorometric plate reader.
For each experiment, controls (containing HeLa nuclear extract and buffer), a blank incubation (containing buffer but no HeLa nuclear extract) and samples (containing compound dissolved in DMSO and further diluted in buffer and HeLa nuclear extract) were run in parallel. In first instance, compounds were tested at a concentration of 10^−5M. […] All sample were tested 4 times. In each test the blank value was subtracted from both the control and the sample values. The control sample represented 100% of substrate deactylation. For each sample the fluorescence was expressed as a percentage of the mean value of the controls. When appropriate IC50-values (concentration of the drug, needed to reduce the amount of metabolites to 50% of the control) were computed using probit analysis for graded data. Herein the effects of test compounds are expressed as pIC50 (the negative log value of the IC50-value) (see Table F-2).

Enzymatic activity pIC50 C.1. | Compound
6.9 | O=C(NO)c1cnc(N2CCN(c3c(NCC4CCN(Cc5ccccc5)C4)c(=O)c3=O)CC2)nc1 (stereo not drawn) [Compound 2]
7.2 | O=C(NO)c1cnc(N2CCN(c3c(NC4CCCc5ccccc54)c(=O)c3=O)CC2)nc1 (stereo not drawn) [Compound 4]
7.2 | O=C(NO)c1cnc(N2CCN(c3c(NCc4ccco4)c(=O)c3=O)CC2)nc1 [Compound 7]
7.2 | O=C(NO)c1cnc(N2CCN(c3c(NCC4(c5ccc(Cl)cc5)CC4)c(=O)c3=O)CC2)nc1 [Compound 8]
7.1 | O=C(NO)c1cnc(N2CCN(c3c(NCCc4ccccc4)c(=O)c3=O)CC2)nc1 [Compound 10]
7.0 | O=C(NO)c1cnc(N2CCN(c3c(NCCc4ccccn4)c(=O)c3=O)CC2)nc1 [Compound 11]
6.9 | O=C(NO)c1cnc(N2CCN(c3c(NCCNc4ccccc4)c(=O)c3=O)CC2)nc1 [Compound 14]
6.8 | O=C(NO)c1cnc(N2CCN(c3c(NCCCN4CCCC4=O)c(=O)c3=O)CC2)nc1 [Compound 15]

The next lines start with the molecule.

Compound | Enzymatic activity pIC50 C.1.
O=C(NO)c1cnc(N2CCN(c3c(Nc4cccc(-c5ccccc5)c4)c(=O)c3=O)CC2)nc1 [Compound 1] | 7.7
CCCCCNc1c(N2CCN(c3ncc(C(=O)NO)cn3)CC2)c(=O)c1=O [Compound 3] | 7.6
O=C(NO)c1cnc(N2CCN(c3c(NCCOc4cccc(Cl)c4)c(=O)c3=O)CC2)nc1 [Compound 5] | 7.4
CCN(CC)CCCNc1c(N2CCN(c3ncc(C(=O)NO)cn3)CC2)c(=O)c1=O [Compound 6] | 7.2
O=C(NO)c1cnc(N2CCN(c3c(NCc4cccnc4)c(=O)c3=O)CC2)nc1 [Compound 9] | 7.0
O=C(NO)c1cnc(N2CCN(c3c(NCc4cccc(C(F)(F)F)c4)c(=O)c3=O)CC2)nc1 [Compound 12] | 7.2
COc1cc(CNc2c(N3CCN(c4ncc(C(=O)NO)cn4)CC3)c(=O)c2=O)cc(OC)c1OC [Compound 13] | 7.4
O=C(NO)c1cnc(N2CCN(c3c(NCCOc4ccccc4)c(=O)c3=O)CC2)nc1 [Compound 16] | 7.3

tested on: not listed separately; experiment: Kinetic solubility in aqueous media (nephelometry); assay type: physicochemical; conditions: aqueous buffer, kinetic from dmso stock; phosphate citrate buffer pH 7.4, dilution of 5 mM DMSO stock, turbidity by nephelometer; read-out: Solubility C.2. score
Protocol: The solubility of a compound measures the ability of a compound to stay in solution. DMSO-stock solutions are diluted with a single aqueous buffer solvent in 3 consecutive steps. For every dilution turbidity is measured with a nephelometer. (see example C.2).
In the first dilution step, 10 μl of a concentrated stock-solution of the active compound, solubilized in DMSO (5 mM), was added to 100 μl phosphate citrate buffer pH 7.4 and mixed. In the second dilution step, an aliquot (20 μl) of the first dilution step was further dispensed in 100 μl phosphate citrate buffer pH 7.4 and mixed. Finally, in the third dilution step, a sample (20 μl) of the second dilution step was further diluted in 100 μl phosphate citrate buffer pH 7.4 and mixed. All dilutions were performed in 96-well plates. Immediately after the last dilution step the turbidity of the three consecutive dilution steps were measured with a nephelometer. Dilution was done in triplicate for each compound to exclude occasional errors. Based on the turbidity measurements a ranking is performed into 3 classes. Compounds with high solubility obtained a score of 3 and for this compounds the first dilution is clear. Compounds with medium solubility obtained a score of 2. For these compounds the first dilution is unclear and the second dilution is clear. […]

solubility | Compound
> 454 µM | O=C(NO)c1cnc(N2CCN(c3c(NCc4ccco4)c(=O)c3=O)CC2)nc1 [Compound 7]
> 454 µM | O=C(NO)c1cnc(N2CCN(c3c(NCc4cccc(C(F)(F)F)c4)c(=O)c3=O)CC2)nc1 [Compound 12]
